From ChEMBL document CHEMBL3797106, “Potent and Selective Agonists of Sphingosine 1-Phosphate 1 (S1P1): Discovery and SAR of a Novel Isoxazole Based Series” (J Med Chem, 2016)

Legend:
[1] = Half life in mouse at 2 mg/kg, iv; assay type: ADME, organism-based; settings: in vivo
[2] = Half life in rat at 2 mg/kg, iv; assay type: ADME, organism-based; settings: in vivo
[3] = target: T1, Sphingosine 1-phosphate receptor 1 (Homo sapiens, UniProt P21453); assay: Induction of internalization of C-terminal GFP-fused human S1P1 receptor expressed in CHO […] assessed as remaining receptor level in cell membrane at 4.6 nM preincubated for 50 mins followed by compound washout measured at 4 hrs relative to control; assay type: cell-based
T1 sequence (P21453 whole entry, the tested form may be a part): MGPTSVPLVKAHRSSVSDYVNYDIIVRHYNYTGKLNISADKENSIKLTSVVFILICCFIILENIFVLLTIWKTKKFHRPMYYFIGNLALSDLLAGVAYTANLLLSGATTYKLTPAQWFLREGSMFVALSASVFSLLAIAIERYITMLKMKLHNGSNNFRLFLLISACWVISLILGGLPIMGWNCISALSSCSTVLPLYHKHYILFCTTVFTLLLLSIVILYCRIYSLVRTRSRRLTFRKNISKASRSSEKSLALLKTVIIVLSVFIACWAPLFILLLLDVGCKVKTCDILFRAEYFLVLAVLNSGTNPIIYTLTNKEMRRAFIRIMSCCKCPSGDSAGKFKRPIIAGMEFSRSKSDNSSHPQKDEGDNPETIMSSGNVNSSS

[4] = Volume of distribution at steady state in mouse at 2 mg/kg, iv; assay type: ADME, organism-based; settings: in vivo, read-out: Vdss
[5] = tested on: Rattus norvegicus; assay: Ratio of Cmax to Cmin in rat at 5 mg/kg, po; assay type: ADME, organism-based; settings: in vivo
[6] = tested on: Rattus norvegicus; assay: Reduction of blood lymphocyte level in Lewis rat at 0.03 mg/kg, po measured at 4 hrs by hematology analyzer relative to vehicle-treated control; assay type: functional; set-up: scale not given: the % may be the effect or the level left
[7] = tested on: Mus musculus; assay: Inhibition of inflammation in spinal cord of po dosed C57BL/6 mouse experimental autoimmune encephalomyelitis model of multiple sclerosis administered as qd for 24 days started from day of immunization; assay type: functional, organism-based
[8] = Tmax in rat at 5 mg/kg, po; assay type: ADME, organism-based; settings: in vivo
[9] = tested on: Mus musculus; assay: Reduction in overall disease severity in po dosed C57BL/6 mouse experimental autoimmune encephalomyelitis model of multiple sclerosis administered as qd for 24 days started from day of immunization measured 3 times per week of compound dosing; assay type: functional, organism-based
[10] = species on record: Homo sapiens; assay: Selectivity ratio of EC50 for human S1P3 receptor to EC50 for human S1P1 receptor
[11] = Permeability of the compound at pH 7.4 by PAMPA; assay type: ADME; settings: read-out: permeability
[12] = tested on: Canis familiaris; assay: Ratio of Cmax to Cmin in dog at 1 mg/kg, po; assay type: ADME, organism-based, Canis lupus familiaris; settings: in vivo
[13] = target: Voltage-gated inwardly rectifying potassium channel KCNH2 (Homo sapiens, UniProt Q12809); assay: Inhibition of human ERG by patch clamp method
Voltage-gated inwardly rectifying potassium channel KCNH2, sequence (Q12809 whole entry): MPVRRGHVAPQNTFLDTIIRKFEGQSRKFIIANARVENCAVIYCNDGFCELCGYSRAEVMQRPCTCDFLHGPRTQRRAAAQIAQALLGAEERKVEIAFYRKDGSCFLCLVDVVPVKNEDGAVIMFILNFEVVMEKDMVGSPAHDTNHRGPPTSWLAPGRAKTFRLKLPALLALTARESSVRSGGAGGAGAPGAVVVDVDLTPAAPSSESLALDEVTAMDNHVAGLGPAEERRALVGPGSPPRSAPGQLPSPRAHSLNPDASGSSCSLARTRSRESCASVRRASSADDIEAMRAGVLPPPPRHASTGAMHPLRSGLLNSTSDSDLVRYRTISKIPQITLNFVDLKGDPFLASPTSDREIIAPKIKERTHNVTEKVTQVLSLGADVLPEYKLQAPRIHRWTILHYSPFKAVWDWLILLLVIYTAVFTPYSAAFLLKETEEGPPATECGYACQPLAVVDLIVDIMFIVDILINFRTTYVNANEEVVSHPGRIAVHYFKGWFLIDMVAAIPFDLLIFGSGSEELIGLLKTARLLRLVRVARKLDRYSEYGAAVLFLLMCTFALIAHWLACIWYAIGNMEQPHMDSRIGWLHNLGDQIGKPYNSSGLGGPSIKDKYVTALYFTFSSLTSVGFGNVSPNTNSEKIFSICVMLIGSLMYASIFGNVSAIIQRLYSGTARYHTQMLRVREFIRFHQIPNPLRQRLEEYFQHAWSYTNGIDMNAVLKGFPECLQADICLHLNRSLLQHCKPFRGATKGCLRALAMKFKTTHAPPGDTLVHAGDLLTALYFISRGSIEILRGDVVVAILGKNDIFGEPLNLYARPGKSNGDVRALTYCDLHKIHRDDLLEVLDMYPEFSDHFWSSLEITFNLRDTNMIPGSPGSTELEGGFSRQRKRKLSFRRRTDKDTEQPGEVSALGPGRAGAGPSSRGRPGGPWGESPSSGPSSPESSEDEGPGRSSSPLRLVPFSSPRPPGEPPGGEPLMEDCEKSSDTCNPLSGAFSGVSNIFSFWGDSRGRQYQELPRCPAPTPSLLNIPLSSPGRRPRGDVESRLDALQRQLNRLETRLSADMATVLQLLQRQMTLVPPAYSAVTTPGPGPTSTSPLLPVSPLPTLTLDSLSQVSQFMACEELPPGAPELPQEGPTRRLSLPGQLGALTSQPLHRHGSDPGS

[14] = Dissociation constant, pKa of the compound; assay type: physicochemical
[15] = Volume of distribution at steady state in dog at 1 mg/kg, iv; assay type: ADME, organism-based, Canis lupus familiaris; settings: in vivo, read-out: Vdss
[16] = target: T2, Cytochrome P450 1A2 (Homo sapiens, UniProt P05177); assay: Inhibition of CYP1A2 (unknown origin); assay type: ADME
T2 sequence (P05177 whole entry): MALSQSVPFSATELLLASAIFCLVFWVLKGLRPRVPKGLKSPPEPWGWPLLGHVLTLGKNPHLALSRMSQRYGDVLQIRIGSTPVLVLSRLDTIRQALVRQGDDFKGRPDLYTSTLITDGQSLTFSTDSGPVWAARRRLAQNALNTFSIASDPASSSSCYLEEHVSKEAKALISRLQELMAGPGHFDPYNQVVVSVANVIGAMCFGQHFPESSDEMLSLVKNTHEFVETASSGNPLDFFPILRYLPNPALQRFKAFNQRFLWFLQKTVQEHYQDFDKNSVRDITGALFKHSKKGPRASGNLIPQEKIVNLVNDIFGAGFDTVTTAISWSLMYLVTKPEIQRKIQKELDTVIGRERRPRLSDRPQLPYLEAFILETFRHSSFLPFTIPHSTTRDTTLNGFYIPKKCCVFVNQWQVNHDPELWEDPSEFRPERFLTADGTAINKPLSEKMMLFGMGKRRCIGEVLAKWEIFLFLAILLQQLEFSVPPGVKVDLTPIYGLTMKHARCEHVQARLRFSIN

[17] = target: Cytochrome P450 2C9 (Homo sapiens, UniProt P11712); assay: Inhibition of CYP2C9 (unknown origin); assay type: ADME
Cytochrome P450 2C9, sequence (P11712 whole entry): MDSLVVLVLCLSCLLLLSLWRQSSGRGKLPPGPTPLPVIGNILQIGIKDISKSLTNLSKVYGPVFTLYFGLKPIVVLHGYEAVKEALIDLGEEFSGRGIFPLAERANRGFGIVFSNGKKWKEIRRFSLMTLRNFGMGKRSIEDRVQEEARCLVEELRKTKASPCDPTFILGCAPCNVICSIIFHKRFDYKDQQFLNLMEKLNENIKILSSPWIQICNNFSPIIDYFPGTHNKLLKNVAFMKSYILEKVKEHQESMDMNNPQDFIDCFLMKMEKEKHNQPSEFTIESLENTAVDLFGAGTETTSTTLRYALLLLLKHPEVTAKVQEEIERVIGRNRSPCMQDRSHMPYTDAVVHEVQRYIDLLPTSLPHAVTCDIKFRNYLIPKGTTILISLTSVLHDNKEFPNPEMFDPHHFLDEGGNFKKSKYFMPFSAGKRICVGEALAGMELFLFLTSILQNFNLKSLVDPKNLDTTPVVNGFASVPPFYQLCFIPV

[18] = tested on: Cynomolgus monkey; assay: Ratio of Cmax to Cmin in cynomolgus monkey at 5 mg/kg, po; assay type: ADME, organism-based, Macaca fascicularis; settings: in vivo
[19] = Mean residence time in cynomolgus monkey at 2 mg/kg, iv; assay type: ADME, organism-based, Macaca fascicularis; settings: in vivo
[20] = Plasma protein binding in mouse; assay type: ADME, cell-free; settings: read-out: PPB
[21] = target: T3, Cytochrome P450 2C8 (Homo sapiens, UniProt P10632); assay: Inhibition of CYP2C8 (unknown origin); assay type: ADME
T3 sequence (P10632 whole entry): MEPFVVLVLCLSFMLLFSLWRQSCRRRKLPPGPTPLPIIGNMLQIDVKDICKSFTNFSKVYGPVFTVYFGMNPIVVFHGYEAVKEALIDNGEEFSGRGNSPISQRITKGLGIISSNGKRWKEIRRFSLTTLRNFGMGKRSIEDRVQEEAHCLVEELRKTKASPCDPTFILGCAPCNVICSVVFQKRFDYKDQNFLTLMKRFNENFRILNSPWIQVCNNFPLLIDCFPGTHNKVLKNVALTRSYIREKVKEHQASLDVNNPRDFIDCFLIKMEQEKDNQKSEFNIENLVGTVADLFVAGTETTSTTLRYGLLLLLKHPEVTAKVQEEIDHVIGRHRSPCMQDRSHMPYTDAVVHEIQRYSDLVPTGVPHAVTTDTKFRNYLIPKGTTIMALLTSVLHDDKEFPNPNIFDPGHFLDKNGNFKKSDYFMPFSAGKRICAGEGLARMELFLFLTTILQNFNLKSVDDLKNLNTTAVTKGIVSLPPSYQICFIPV

[22] = target: T4, Cytochrome P450 2B6 (Homo sapiens, UniProt P20813); assay: Inhibition of CYP2B6 (unknown origin); assay type: ADME
T4 sequence (P20813 whole entry): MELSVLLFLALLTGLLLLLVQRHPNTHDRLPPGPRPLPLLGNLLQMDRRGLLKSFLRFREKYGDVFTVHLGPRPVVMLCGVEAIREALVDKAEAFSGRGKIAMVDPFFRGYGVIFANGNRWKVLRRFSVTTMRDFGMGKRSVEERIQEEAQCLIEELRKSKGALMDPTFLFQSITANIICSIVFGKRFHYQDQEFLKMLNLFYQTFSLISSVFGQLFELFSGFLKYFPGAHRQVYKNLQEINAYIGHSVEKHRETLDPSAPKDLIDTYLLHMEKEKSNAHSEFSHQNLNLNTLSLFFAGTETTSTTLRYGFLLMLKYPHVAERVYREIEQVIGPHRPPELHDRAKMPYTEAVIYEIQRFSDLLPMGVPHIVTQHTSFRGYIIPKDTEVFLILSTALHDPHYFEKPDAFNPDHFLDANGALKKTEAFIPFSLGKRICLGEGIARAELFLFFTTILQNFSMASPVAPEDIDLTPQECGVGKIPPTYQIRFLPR

[23] = tested on: Canis familiaris; assay: Clearance in dog at 1 mg/kg, iv relative to hepatic blood flow; assay type: ADME, organism-based, Canis lupus familiaris, Liver; settings: in vivo
[24] = tested on: Plasma; assay: Ratio drug level in Lewis rat plasma at 0.3 mg/kg, po at 4 hrs to drug level in Lewis rat plasma at 0.3 mg/kg, po at 24 hrs; assay type: ADME, organism-based; settings: in vivo
[25] = tested on: Rattus norvegicus; assay: Reduction of blood lymphocyte level in Lewis rat at 0.3 mg/kg, po measured at 4 hrs by hematology analyzer relative to vehicle-treated control; assay type: functional; set-up: scale not given: the % may be the effect or the level left
[26] = target: T1, Sphingosine 1-phosphate receptor 1; assay: Induction of internalization of C-terminal GFP-fused human S1P1 receptor expressed in CHO […] at 4.6 nM after 50 mins relative to control; assay type: cell-based
[27] = target: Sphingosine 1-phosphate receptor 3 (Homo sapiens, UniProt Q99500); assay: Agonist activity at human S1P3 receptor expressed in EDG3-Ga15-bla HEK293T cell membranes after 45 mins by [35S]-GTPgammaS binding assay; assay type: functional, HEK-293T
Sphingosine 1-phosphate receptor 3, sequence (Q99500 whole entry): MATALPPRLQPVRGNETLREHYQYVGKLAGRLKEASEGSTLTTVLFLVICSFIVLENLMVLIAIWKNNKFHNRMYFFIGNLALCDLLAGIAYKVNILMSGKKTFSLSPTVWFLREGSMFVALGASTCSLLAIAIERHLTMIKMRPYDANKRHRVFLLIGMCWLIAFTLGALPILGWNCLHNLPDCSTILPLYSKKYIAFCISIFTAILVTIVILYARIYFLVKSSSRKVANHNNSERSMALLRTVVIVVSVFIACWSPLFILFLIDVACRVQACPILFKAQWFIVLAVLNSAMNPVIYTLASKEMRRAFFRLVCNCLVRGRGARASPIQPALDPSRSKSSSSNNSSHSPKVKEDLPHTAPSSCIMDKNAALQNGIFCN

[28] = Tmax in cynomolgus monkey at 5 mg/kg, po; assay type: ADME, organism-based, Macaca fascicularis; settings: in vivo

O=C(O)C1CN(Cc2ccc(-c3noc(-c4onc(-c5ccccc5)c4C(F)(F)F)n3)cc2)C1
half-life [1]: 9.8 h | half-life [2]: 10 h | Activity [3]: 20% | Vd [4]: 0.2 L/kg | Ratio [5]: 6 | Activity [6]: 75% | inhibition [7]: Dose-dependent effect | Tmax [8]: 3.3 h | Activity [9]: Dose-dependent effect | Ratio EC50 [10]: 3400 | Papp [11]: 103 ×10⁻⁶ cm/s | Ratio [12]: 9 | IC50 [13]: 18 µM | pKa [14]: 3.7 | Vd [15]: 0.7 L/kg | IC50 [16]: > 40 µM | IC50 [17]: > 40 µM | Ratio [18]: 37 | MRT [19]: 2.2 h | fraction unbound [20]: 0.001 | IC50 [21]: > 40 µM | IC50 [22]: > 40 µM | CL [23]: 5.2% | Ratio [24]: 7 | Activity [25]: 82% | Activity [26]: > 90% | EC50 [27]: 1.6 µM | Tmax [28]: 1 h
